From patent US8765433B2, “Alcohol dehydrogenases (ADH) useful for fermentive production of lower alkyl alcohols” (priority 2009, dated 2014)

How the values were obtained:
Assay type in all cases: biochemical
[1] = system: Achromobacter xylosoxidans SadB (SadB), SEQ ID NO: 26; assay: isobutanol oxidation kinetics; conditions: 30° C., pH 8.8, 7.5 mM NAD
Experimental: (§1) As a routine practice, the crude extracts and purified proteins were assayed for butanol oxidation activity, in order to ensure that the recombinant proteins were active throughout the purification process. […] Alcohol oxidation activities were carried out in 50 mM sodium phosphate buffer at pH 8.8 and aldehyde reduction reactions were assayed in 190 mM potassium phosphate buffer at pH 7.0. Depending on the nature of reaction being carried out, the enzyme and cofactor stocks were diluted in the reaction buffers at the respective pHs. Either buffer or cell extract prepared from the proprietary E. coli strain (with no ADH plasmid) was used as the negative control for assays with purified protein and cell-free extracts, respectively.
(§2) Kinetic constants of the ADH enzymes were calculated and compared to identify those candidate ADH enzymes with the most desirable properties for the conversion of isobutyraldehyde to isobutanol in the last step of the engineered pathway for isobutanol production. The assays for determining the kinetic constants were carried out using initial rates from the assays described above. […] The concentration of a given enzyme was such that it was conducive for the measurement of initial velocities over a 1-min time course. For each enzyme, Michaelis-Menten plots were generated with a broad range of substrate concentrations. Rough estimates of KM were obtained, based on which the assays were redesigned so as to use substrate concentrations in the range 0.5 to 10 times the KM value, to be able to obtain the appropriate kinetic constants. […] When calculating the KI for isobutanol, the same reactions were carried out in the presence of varying concentrations of isobutanol (generally 0-535 mM) in the reaction (see FIG. 7, for example). Reactions with isobutanol substrate were performed at 30° C. in 50 mM Sodium phosphate buffer, pH 8.8, containing 7.5 mM NAD. The Enzyme kinetics module (Version 1.3) of SigmaPlot 11 (Systat Software, Inc.) was used to fit data to Michaelis-Menten equations and calculate the kinetic constants. The kcat/KM is derived from the individual numbers of kcat and KM and not an experimentally determined value. The ratios of the KM, KI, and kcat/KM for each candidate enzyme as compared to the same parameter for SadB are given in Table 9.
(§3) For those enzymes marked with an asterisk in Table 7, at least 3 assays were performed with separate preparations of the enzyme. All other numbers are values from either one assay or are averages from 2 assays performed with the same enzyme sample.

[2] = target: T1, Beijerinckia indica subsp. Indica ATCC 9039 ADH (BiADH), SEQ ID NO: 31 (Beijerinckia indica, UniProt B2IGW3); assay: isobutanol oxidation kinetics; conditions: 30° C., pH 8.8, 7.5 mM NAD
T1 sequence (B2IGW3 1-347): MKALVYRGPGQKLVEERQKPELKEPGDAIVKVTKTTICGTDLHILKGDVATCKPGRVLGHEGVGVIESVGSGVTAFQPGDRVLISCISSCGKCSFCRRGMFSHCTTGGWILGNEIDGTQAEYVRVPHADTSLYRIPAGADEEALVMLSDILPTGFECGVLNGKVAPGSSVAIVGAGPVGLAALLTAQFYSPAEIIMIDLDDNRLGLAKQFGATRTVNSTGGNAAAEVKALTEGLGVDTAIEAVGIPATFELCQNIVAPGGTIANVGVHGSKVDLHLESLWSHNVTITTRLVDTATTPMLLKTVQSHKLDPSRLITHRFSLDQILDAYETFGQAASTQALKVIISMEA
Experimental: as §1, §2, §3

[3] = target: T2, Rattus norvegicus ADH1 (RnADH1), SEQ ID NO: 32 (Rattus norvegicus, UniProt P06757); assay: isobutyraldehyde reduction kinetics (A340, initial rates)
T2 construct: hexa-histidine (pBADHisA) (N); made in house; host or cells: E. coli (BL21-CodonPlus or a proprietary E. coli strain)

[4] = target: T3, Thermus sp. ATN1 ADH (TADH), SEQ ID NO: 33 (Thermus sp. ATN1, UniProt B2ZRE3); assay: as above; conditions: relative to SadB
T3 sequence (B2ZRE3 1-347): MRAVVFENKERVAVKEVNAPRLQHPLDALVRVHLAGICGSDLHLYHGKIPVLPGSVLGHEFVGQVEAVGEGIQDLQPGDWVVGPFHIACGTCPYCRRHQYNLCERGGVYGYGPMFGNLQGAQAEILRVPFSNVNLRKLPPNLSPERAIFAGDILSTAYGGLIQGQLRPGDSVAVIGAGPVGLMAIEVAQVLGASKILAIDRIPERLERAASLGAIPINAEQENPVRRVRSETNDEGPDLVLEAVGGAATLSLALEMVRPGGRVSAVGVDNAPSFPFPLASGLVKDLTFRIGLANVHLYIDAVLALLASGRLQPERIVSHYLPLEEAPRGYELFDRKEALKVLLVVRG

T2 sequence (P06757 whole entry): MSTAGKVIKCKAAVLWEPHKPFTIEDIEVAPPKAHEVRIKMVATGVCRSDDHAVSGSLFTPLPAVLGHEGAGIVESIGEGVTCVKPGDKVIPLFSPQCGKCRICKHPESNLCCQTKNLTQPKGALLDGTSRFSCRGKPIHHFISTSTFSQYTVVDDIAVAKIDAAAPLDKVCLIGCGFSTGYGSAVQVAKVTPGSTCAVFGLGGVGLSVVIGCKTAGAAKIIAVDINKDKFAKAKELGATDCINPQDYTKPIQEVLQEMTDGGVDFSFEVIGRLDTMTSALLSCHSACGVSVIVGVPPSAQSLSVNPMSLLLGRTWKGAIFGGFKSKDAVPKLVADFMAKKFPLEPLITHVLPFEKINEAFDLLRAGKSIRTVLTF

| SMILES | Km [1] [mM] | kcat (isobutanol oxidation) [1] | kcat (isobutanol oxidation) [2] | Km ([3]; 30° C., pH 7.0, NADH specific, low KM precludes accurate determination, read-out: KM (Isobutanal)) [mM] | kcat ([3]; isobutyraldehyde reduction, 30° C., pH 7.0, NADH specific) [s⁻¹] | KM as a percentage of the same parameter for SadB ([3]; relative to SadB) [%] | kcat as a percentage of the same parameter for SadB ([3]; relative to SadB) [%] | kcat/KM as a percentage of the same parameter for SadB ([3]; relative to SadB) [%] | KM as a percentage of the same parameter for SadB [4] [%] | kcat as a percentage of the same parameter for SadB [4] [%] | kcat/KM as a percentage of the same parameter for SadB [4] [%] |
| --- | --- | --- | --- | --- | --- | --- | --- | --- | --- | --- | --- |
| CC(C)CO [isobutanol, 2-methylpropan-1-ol] | 24 | [Isobutanol oxidation: kcat = 2 sec^−1; | [Isobutanol oxidation: kcat = 9 sec^−1; |  |  |  |  |  |  |  |  |
| CC(C)C=O [isobutyraldehyde] |  |  |  | ≤ 0.003 | ~5 | <1 | 5 | 1588 | 130 | 14 | 10 |
